Results on one molecule are retold here after patent US10265327B2, “V1A antagonists to treat phase shift sleep disorders” (Hoffmann-La Roche Inc., priority 2013, dated 2019).

The target in this test is T1, human V1a receptor (hV1a) (Homo sapiens, UniProt P37288).
T1 construct: expressed in transfected cells; host or cells: HEK cells, transient transfection; membrane preparation
Put plainly: Radioligand binding assay (3H-AVP, SPA), human V1a. Particulars: 1 nM 3H-AVP. The method, then:
The test compound was initially dissolved in DMSO at a concentration of 10 mM. Subsequent dilutions were made in assay buffer with a maximum final concentration of 0.2% DMSO.
Recombinant vasopressin V1a (human: hV1a; mouse: mV1a), V1b (human: hV1b) were independently expressed in human embryonic kidney (HEK) cells using transient transfection. The cell membranes expressing the various receptors were prepared by homogenizing (using Polytron homogenizer) the cell culture pellet in lysis buffer (50 mM HEPES, 1 mM EDTA, 10 mM MgCl2, pH 7.4 with protease inhibitors), then centrifuging the resulting suspension at 500 g for 20 min at 4° C. The supernatant was subsequently re-centrifuged at 43,000 g for 1 hour at 4° C. […] The concentration of protein was determined, and the membranes were aliquoted and stored at −80° C. until further use.
All radioligand binding assays were carried out in 96-well plates in the presence of 1 nM ^3H-AVP (vasopressin) radioligand, and 10 concentrations of test compound (ranging from 27 μM-1 nM or 2.7 μM-0.1 nM for hV1a binding). […] Filtration assays were terminated by rapid filtration under vacuum through GF/C filters, presoaked for 5 min with buffer B containing Tris 50 mM, MgCl2 5 mM, 0.1% BSA (pH 7.4), followed by 5×0.4 ml washes of ice-cold buffer B. For both SPA and filtration plates, bound ligand was determined using a Packard Topcount scintillation counter. […]

SMILES strings stand for the structures. Like-named read-outs stand apart in the source and are kept apart here.

T1 sequence (P37288 whole entry): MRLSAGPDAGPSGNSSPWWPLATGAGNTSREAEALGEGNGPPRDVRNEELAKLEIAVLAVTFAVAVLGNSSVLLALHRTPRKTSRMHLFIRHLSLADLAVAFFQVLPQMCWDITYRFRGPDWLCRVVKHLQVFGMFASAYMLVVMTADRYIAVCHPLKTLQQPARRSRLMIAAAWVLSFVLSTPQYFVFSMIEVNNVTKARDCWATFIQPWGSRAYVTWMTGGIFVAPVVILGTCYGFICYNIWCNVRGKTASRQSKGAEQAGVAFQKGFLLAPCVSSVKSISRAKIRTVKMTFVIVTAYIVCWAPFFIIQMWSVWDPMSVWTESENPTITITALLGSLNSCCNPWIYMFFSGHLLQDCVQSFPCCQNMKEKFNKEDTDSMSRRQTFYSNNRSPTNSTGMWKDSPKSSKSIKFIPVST

Take `CN1Cc2cc(Cl)ccc2-n2c(nnc2[C@H]2CC[C@H](Oc3ccccn3)CC2)C1` [Example 1, trans-8-chloro-5-methyl-1-(4-pyridin-2-yloxycyclohexyl)-4,6-dihydro-[1,2,4]triazolo[4,3-a][1,4]benzodiazepine]: the Ki by setting is: (Ki ± SEM (n), read-out: Ki V1a Human) 700 ± 100 pM; (pKi ± SEM (n), read-out: pKi V1a Human (converted)) 776 pM.
